# Reference: article PMC10590419, “Structural and mechanistic insights into the inhibition of respiratory syncytial virus polymerase by a non-nucleoside inhibitor” (Communications Biology, 2023)
# Biological target: T1, Human DNA polymerase alpha (Homo sapiens, UniProt P09884)
# T1 construct: purchased CHIMERx
# T1 sequence (P09884 1-1462): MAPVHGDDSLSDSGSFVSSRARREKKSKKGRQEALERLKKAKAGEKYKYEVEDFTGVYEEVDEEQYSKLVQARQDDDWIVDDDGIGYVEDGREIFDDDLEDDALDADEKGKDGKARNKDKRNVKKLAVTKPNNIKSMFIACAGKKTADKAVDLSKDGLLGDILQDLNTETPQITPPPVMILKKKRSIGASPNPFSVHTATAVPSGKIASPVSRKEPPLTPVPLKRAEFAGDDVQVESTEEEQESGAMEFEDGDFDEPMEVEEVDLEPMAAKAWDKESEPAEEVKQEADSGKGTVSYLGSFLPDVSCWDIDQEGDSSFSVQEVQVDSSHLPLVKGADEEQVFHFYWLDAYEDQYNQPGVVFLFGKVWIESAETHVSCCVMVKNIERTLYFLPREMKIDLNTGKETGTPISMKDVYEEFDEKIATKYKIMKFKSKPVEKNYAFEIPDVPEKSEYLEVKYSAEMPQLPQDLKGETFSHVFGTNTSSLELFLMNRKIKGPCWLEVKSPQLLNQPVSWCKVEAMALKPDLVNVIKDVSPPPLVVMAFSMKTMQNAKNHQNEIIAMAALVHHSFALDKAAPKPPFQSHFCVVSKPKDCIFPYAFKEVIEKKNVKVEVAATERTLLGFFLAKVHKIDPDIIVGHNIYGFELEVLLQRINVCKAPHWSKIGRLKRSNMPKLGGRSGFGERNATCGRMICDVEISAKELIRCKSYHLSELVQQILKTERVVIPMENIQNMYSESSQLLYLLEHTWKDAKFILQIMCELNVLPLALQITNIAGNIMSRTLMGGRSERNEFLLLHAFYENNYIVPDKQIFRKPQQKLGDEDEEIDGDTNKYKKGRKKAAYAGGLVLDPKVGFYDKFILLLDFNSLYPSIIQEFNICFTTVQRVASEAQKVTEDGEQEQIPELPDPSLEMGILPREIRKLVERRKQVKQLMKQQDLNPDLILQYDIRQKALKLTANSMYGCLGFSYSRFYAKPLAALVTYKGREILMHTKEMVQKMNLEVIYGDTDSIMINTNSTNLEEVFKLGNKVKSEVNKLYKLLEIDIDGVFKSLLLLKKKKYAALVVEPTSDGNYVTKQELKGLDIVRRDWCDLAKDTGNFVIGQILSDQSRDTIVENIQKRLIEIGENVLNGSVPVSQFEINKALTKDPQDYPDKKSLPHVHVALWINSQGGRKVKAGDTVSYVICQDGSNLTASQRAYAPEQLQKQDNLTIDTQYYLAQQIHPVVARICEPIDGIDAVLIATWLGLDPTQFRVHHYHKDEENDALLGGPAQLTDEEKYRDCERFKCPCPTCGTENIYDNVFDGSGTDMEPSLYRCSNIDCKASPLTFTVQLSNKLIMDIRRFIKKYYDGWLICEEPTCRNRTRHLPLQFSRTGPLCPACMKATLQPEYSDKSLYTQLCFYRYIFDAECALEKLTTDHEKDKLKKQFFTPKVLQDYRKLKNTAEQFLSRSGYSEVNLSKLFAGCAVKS
# Test: DNA-dependent DNA polymerase activity
# Format: biochemical
# Details: DNA Pol α
# Protocol: to the method described previously 1. A 25 nM solution of RSV MTase-CTD protein or RSV L+P complex was incubated with 0.7 µM or 1.8 µM purified synthetic RNA 5’-Gppp […]
# […] (RSV9) for the MTase-CTD or L+P complex, respectively; 2 µM or 0.17 µM S-adenosyl methionine (SAM) for the MTase-CTD or L–P complex, respectively; and 0.1 µM or 0.8 µM 3H-SAM (Perkin Elmer) for the MTase-CTD or L–P complex, respectively; in 50 mM Tris-HCl pH 8.0. Compounds, previously dissolved in DMSO were added at a final concentration of 50 µM or 200 µM. After 3 h incubation at 30°C, reactions were quenched by a 20-fold dilution in ice cold water. Samples were transferred to DEAE filtermats (Perkin Elmer) using a Filtermat Harvester (Packard Instruments). The RNA-retaining mats were washed twice with 10 mM ammonium formate pH 8.0, twice with water and once with ethanol. They were then soaked with scintillation fluid (Perkin Elmer), and 3H-methyl transfer to the RNA substrates was determined using a Wallac MicroBeta TriLux Liquid Scintillation Counter.
# Cellular polymerase assays
# DNA-dependant DNA polymerase (DdDp) activity
# Human DNA polymerases alpha (CHIMERx) at 5 U/ml, beta (CHIMERx) at 0.5 U/ml and gamma (Abcam) at 0.1 mg/ml were incubated with the tested inhibitors at specified concentrations, and a reaction mix composed of 62 µg/ml activated calf thymus DNA, dGTP (2 µM), dATP (2 µM), dCTP (2 µM), [ 3H]dTTP (0.05 µCi/µl), 0.1 mg/ml BSA and a buffer composed of Tris-HCl pH 8 (50 mM), MgCl 2 (5 mM), KCl (60 mM), and DTT (4 mM.) in a total volume of 50 µl. After 2 hours incubation at 30°C, reaction was terminated by addition of 60 µl of a chilled stop solution composed of 20% (w/v) TCA with 0.5 mM ATP. […] Radioactivity was measured via liquid scintillation counting (MicroScint-20, 40µl) on a TriLux apparatus. […]
# The RNA transcription activity of human mitochondrial RNA polymerase (POLRMT) was measured by the incorporation of radioactively labeled nucleotides by POLRMT into acid-insoluble RNA products as described previously 2. […]
structure (smiles),measurement,value
COc1cc(C(=O)NC[C@](O)(c2cc(C(C)(C)O)c(F)c(-c3ccc(F)cc3)n2)C(F)(F)F)cc2cc(C)nnc12 [JNJ-8003],IC50,> 100 µM
